According to US11229205B2, “Herbicidally active pyridyl-/pyrimidyl-pyrazine derivatives” (Syngenta Participations AG, priority 2017, dated 2022):

Key:
Type in all cases: in vivo
[1] = tested on: Alopecurus myosuroides (ALOMY); test: Pre-emergence herbicidal activity (B1); settings: Test 1b; pre-emergence application; rate 1000 g/ha; evaluated after 13 days; score 0-5
Method: (§1) Seeds of a variety of test species were sown in standard soil in pots: Triticum aestivium (TRZAW), Avena fatua (AVEFA), Alopecurus myosuroides (ALOMY), Echinochloa crus-galli (ECHCG), Lolium perenne (LOLPE), Zea Mays (ZEAMX), Abutilon theophrasti (ABUTH), Amaranthus retroflexus (AMARE) and Setaria faberi (SETFA). […] The test plants were then grown in a glasshouse under controlled conditions (at 24/16° C., day/night; 14 hours light; 65% humidity) and watered twice daily. After 13 days, the test was evaluated (5=total damage to plant; 0=no damage to plant).

Avena fatua (AVEFA) [2] = test: Pre-emergence herbicidal activity (B1); settings: Test 1b; pre-emergence application; rate 1000 g/ha; evaluated after 13 days; score 0-5
Method: as §1

Setaria faberi (SETFA) [3] = test: Pre-emergence herbicidal activity (B1); settings: Test 1b; pre-emergence application; rate 1000 g/ha; evaluated after 13 days; score 0-5
Method: as §1

Lolium perenne (LOLPE) [4] = test: Pre-emergence herbicidal activity (B1); settings: Test 1b; pre-emergence application; rate 1000 g/ha; evaluated after 13 days; score 0-5
Method: as §1

[5] = tested on: Triticum aestivium (TRZAW); test: Pre-emergence herbicidal activity (B1); settings: Test 1b; pre-emergence application; rate 1000 g/ha; evaluated after 13 days; score 0-5
Method: as §1

[6] = tested on: Echinochloa crus-galli (ECHCG); test: Pre-emergence herbicidal activity (B1); settings: Test 1b; pre-emergence application; rate 1000 g/ha; evaluated after 13 days; score 0-5
Method: as §1

[7] = tested on: Alopecurus myosuroides (ALOMY); test: Post-emergence herbicidal activity (B2); settings: Test B2b; post-emergence application; rate 1000 g/ha; evaluated after 13 days; score 0-5
Method: as §1

Avena fatua (AVEFA) [8] = test: Post-emergence herbicidal activity (B2); settings: Test B2b; post-emergence application; rate 1000 g/ha; evaluated after 13 days; score 0-5
Method: as §1

Setaria faberi (SETFA) [9] = test: Post-emergence herbicidal activity (B2); settings: Test B2b; post-emergence application; rate 1000 g/ha; evaluated after 13 days; score 0-5
Method: as §1

Lolium perenne (LOLPE) [10] = test: Post-emergence herbicidal activity (B2); settings: Test B2b; post-emergence application; rate 1000 g/ha; evaluated after 13 days; score 0-5
Method: as §1

[11] = tested on: Triticum aestivium (TRZAW); test: Post-emergence herbicidal activity (B2); settings: Test B2b; post-emergence application; rate 1000 g/ha; evaluated after 13 days; score 0-5
Method: as §1

[12] = tested on: Echinochloa crus-galli (ECHCG); test: Post-emergence herbicidal activity (B2); settings: Test B2b; post-emergence application; rate 1000 g/ha; evaluated after 13 days; score 0-5
Method: as §1

SMILES | damage to plant, ALOMY [1] | damage to plant, AVEFA (Avena fatua (AVEFA) [2]) | damage to plant, SETFA (Setaria faberi (SETFA) [3]) | damage to plant, LOLPE (Lolium perenne (LOLPE) [4]) | damage to plant, TRAZW [5] | damage to plant, ECHCG [6] | damage to plant, ALOMY [7] | damage to plant, AVEFA (Avena fatua (AVEFA) [8]) | damage to plant, SETFA (Setaria faberi (SETFA) [9]) | damage to plant, LOLPE (Lolium perenne (LOLPE) [10]) | damage to plant, TRAZW [11] | damage to plant, ECHCG [12]
CCOC(=O)c1nc(-c2cncnc2)cnc1N [Compound G2] | 0 | 0 | 2 | 0 | 0 | 0 | 1 | 1 | 3 | 1 | 0 | 1
Nc1ncc(-c2cncc(F)c2)nc1C(F)(F)F [Compound G3, 2-amino-3-trifluoromethyl-5-(5-fluoropyrid-3-yl) pyrazine] | 1 | 1 | 4 | 0 | 1 | 3 | 0 | 3 | 3 | 2 | 0 | 4
Cc1nc(-c2cncc(F)c2)cnc1N [Compound G4] | 0 | 1 | 1 | 0 | 0 | 1 | 0 | 1 | 3 | 0 | 0 | 2
COc1nc(-c2cncc(F)c2)cnc1N [Compound G5] | 0 | 0 | 1 | 0 | 0 | 1 | 1 | 1 | 3 | 0 | 0 | 2
Nc1ncc(-c2cncnc2)nc1C(F)(F)F [Compound G6] | 0 | 1 | 2 | 0 | 0 | 1 | 0 | 1 | 3 | 1 | 0 | 3
N#Cc1nc(-c2cncc(F)c2)cnc1N [Compound G7] | 0 | 0 | 1 | 0 | 0 | 1 | 0 | 1 | 2 | 0 | 0 | 3
